According to the NIST ThermoML archive (doi:10.1021/acs.jced.6b00178):
± gives the expanded uncertainty stated by the source.

Assay: xn = mol fraction of the nth substance listed
Settings: 100 kPa, Liquid; for viscosity: Concentric cylinders viscometry; for mass density: Vibrating tube method

Q: Which results are given for `CCCCn1cc[n+](C)c1.O=S(=O)([O-])C(F)(F)F` [1-butyl-3-methylimidazolium trifluoromethanesulfonate] + CCCC[n+]1ccn(C)c1.O=S(=O)([N-]S(=O)(=O)C(F)(F)F)C(F)(F)F?
A: viscosity (283.15 K, x2 = 0): 225.61 ± 12 mPa·s; viscosity (283.15 K, x2 = 0.25): 154.7 ± 8.1 mPa·s; viscosity (283.15 K, x2 = 0.5): 145 ± 7.5 mPa·s; viscosity (283.15 K, x2 = 0.746): 145.79 ± 7.6 mPa·s; mass density (283.15 K, x2 = 0): 1308.4 ± 0.7 kg/m3; mass density (283.15 K, x2 = 0.25): 1352.7 ± 0.7 kg/m3; mass density (283.15 K, x2 = 0.5): 1389 ± 0.7 kg/m3; mass density (283.15 K, x2 = 0.746): 1421.8 ± 0.7 kg/m3; viscosity (288.15 K, x2 = 0): 168.05 ± 8.8 mPa·s; viscosity (288.15 K, x2 = 0.25): 117.06 ± 6 mPa·s; viscosity (288.15 K, x2 = 0.5): 109.34 ± 5.6 mPa·s; viscosity (288.15 K, x2 = 0.746): 111.5 ± 5.7 mPa·s; mass density (288.15 K, x2 = 0): 1304.3 ± 0.7 kg/m3; mass density (288.15 K, x2 = 0.25): 1348.3 ± 0.7 kg/m3; mass density (288.15 K, x2 = 0.5): 1384.4 ± 0.7 kg/m3; mass density (288.15 K, x2 = 0.746): 1417.1 ± 0.7 kg/m3; viscosity (293.15 K, x2 = 0): 128.51 ± 6.6 mPa·s; viscosity (293.15 K, x2 = 0.25): 90.69 ± 4.6 mPa·s; viscosity (293.15 K, x2 = 0.5): 84.53 ± 4.3 mPa·s; viscosity (293.15 K, x2 = 0.746): 87.3 ± 4.4 mPa·s; mass density (293.15 K, x2 = 0): 1300.3 ± 0.7 kg/m3; mass density (293.15 K, x2 = 0.25): 1344 ± 0.7 kg/m3; mass density (293.15 K, x2 = 0.5): 1379.9 ± 0.7 kg/m3; mass density (293.15 K, x2 = 0.746): 1412.4 ± 0.7 kg/m3; viscosity (298.15 K, x2 = 0): 99.14 ± 5.1 mPa·s; viscosity (298.15 K, x2 = 0.25): 71.42 ± 3.6 mPa·s; viscosity (298.15 K, x2 = 0.5): 66.62 ± 3.4 mPa·s; viscosity (298.15 K, x2 = 0.746): 68.68 ± 3.5 mPa·s; mass density (298.15 K, x2 = 0): 1296.3 ± 0.7 kg/m3; mass density (298.15 K, x2 = 0.25): 1339.8 ± 0.7 kg/m3; mass density (298.15 K, x2 = 0.5): 1375.5 ± 0.7 kg/m3; mass density (298.15 K, x2 = 0.746): 1407.8 ± 0.7 kg/m3; viscosity (303.15 K, x2 = 0): 78.26 ± 4 mPa·s; viscosity (303.15 K, x2 = 0.25): 57.29 ± 2.9 mPa·s; viscosity (303.15 K, x2 = 0.5): 53.39 ± 2.7 mPa·s; viscosity (303.15 K, x2 = 0.746): 55.86 ± 2.8 mPa·s; mass density (303.15 K, x2 = 0): 1292.3 ± 0.7 kg/m3; mass density (303.15 K, x2 = 0.25): 1335.5 ± 0.7 kg/m3; mass density (303.15 K, x2 = 0.5): 1371 ± 0.7 kg/m3; mass density (303.15 K, x2 = 0.746): 1403.2 ± 0.7 kg/m3; viscosity (308.15 K, x2 = 0): 62.76 ± 3.2 mPa·s; viscosity (308.15 K, x2 = 0.25): 46.66 ± 2.3 mPa·s; viscosity (308.15 K, x2 = 0.5): 43.56 ± 2.2 mPa·s; viscosity (308.15 K, x2 = 0.746): 45.8 ± 2.3 mPa·s; mass density (308.15 K, x2 = 0): 1288.4 ± 0.7 kg/m3; mass density (308.15 K, x2 = 0.25): 1331.3 ± 0.7 kg/m3; mass density (308.15 K, x2 = 0.5): 1366.6 ± 0.7 kg/m3; mass density (308.15 K, x2 = 0.746): 1398.6 ± 0.7 kg/m3; viscosity (313.15 K, x2 = 0): 51.33 ± 2.6 mPa·s; viscosity (313.15 K, x2 = 0.25): 38.52 ± 1.9 mPa·s; viscosity (313.15 K, x2 = 0.5): 35.96 ± 1.8 mPa·s; viscosity (313.15 K, x2 = 0.746): 38.1 ± 1.9 mPa·s; mass density (313.15 K, x2 = 0): 1284.5 ± 0.7 kg/m3; mass density (313.15 K, x2 = 0.25): 1327 ± 0.7 kg/m3; mass density (313.15 K, x2 = 0.5): 1362.2 ± 0.7 kg/m3; mass density (313.15 K, x2 = 0.746): 1394 ± 0.7 kg/m3; viscosity (318.15 K, x2 = 0): 42.1 ± 2.1 mPa·s; viscosity (318.15 K, x2 = 0.25): 32.19 ± 1.6 mPa·s; viscosity (318.15 K, x2 = 0.5): 30.15 ± 1.5 mPa·s; viscosity (318.15 K, x2 = 0.746): 32.2 ± 1.6 mPa·s; mass density (318.15 K, x2 = 0): 1280.6 ± 0.7 kg/m3; mass density (318.15 K, x2 = 0.25): 1322.8 ± 0.7 kg/m3; mass density (318.15 K, x2 = 0.5): 1357.8 ± 0.7 kg/m3; mass density (318.15 K, x2 = 0.746): 1389.4 ± 0.7 kg/m3; viscosity (323.15 K, x2 = 0): 35.13 ± 1.8 mPa·s; viscosity (323.15 K, x2 = 0.25): 27.21 ± 1.4 mPa·s; viscosity (323.15 K, x2 = 0.5): 25.43 ± 1.3 mPa·s; viscosity (323.15 K, x2 = 0.746): 27.44 ± 1.4 mPa·s; mass density (323.15 K, x2 = 0): 1276.7 ± 0.7 kg/m3; mass density (323.15 K, x2 = 0.25): 1318.7 ± 0.7 kg/m3; mass density (323.15 K, x2 = 0.5): 1353.5 ± 0.7 kg/m3; mass density (323.15 K, x2 = 0.746): 1384.9 ± 0.7 kg/m3; viscosity (328.15 K, x2 = 0): 29.63 ± 1.5 mPa·s; viscosity (328.15 K, x2 = 0.25): 23.24 ± 1.2 mPa·s; viscosity (328.15 K, x2 = 0.5): 21.66 ± 1.1 mPa·s; viscosity (328.15 K, x2 = 0.746): 23.47 ± 1.2 mPa·s; mass density (328.15 K, x2 = 0): 1272.8 ± 0.7 kg/m3; mass density (328.15 K, x2 = 0.25): 1314.5 ± 0.7 kg/m3; mass density (328.15 K, x2 = 0.5): 1349.2 ± 0.7 kg/m3; mass density (328.15 K, x2 = 0.746): 1380.4 ± 0.7 kg/m3; viscosity (333.15 K, x2 = 0): 25.5 ± 1.3 mPa·s; viscosity (333.15 K, x2 = 0.25): 20.06 ± 1 mPa·s; viscosity (333.15 K, x2 = 0.5): 18.55 ± 0.93 mPa·s; viscosity (333.15 K, x2 = 0.746): 20.27 ± 1 mPa·s; mass density (333.15 K, x2 = 0): 1268.9 ± 0.7 kg/m3; mass density (333.15 K, x2 = 0.25): 1310.4 ± 0.7 kg/m3; mass density (333.15 K, x2 = 0.5): 1344.9 ± 0.7 kg/m3; mass density (333.15 K, x2 = 0.746): 1376 ± 0.7 kg/m3; viscosity (338.15 K, x2 = 0): 21.72 ± 1.1 mPa·s; viscosity (338.15 K, x2 = 0.25): 17.4 ± 0.88 mPa·s; viscosity (338.15 K, x2 = 0.5): 16.08 ± 0.81 mPa·s; viscosity (338.15 K, x2 = 0.746): 17.6 ± 0.89 mPa·s; mass density (338.15 K, x2 = 0): 1265.1 ± 0.7 kg/m3; mass density (338.15 K, x2 = 0.25): 1306.2 ± 0.7 kg/m3; mass density (338.15 K, x2 = 0.5): 1340.6 ± 0.7 kg/m3; mass density (338.15 K, x2 = 0.746): 1371.5 ± 0.7 kg/m3; viscosity (343.15 K, x2 = 0): 18.84 ± 0.95 mPa·s; viscosity (343.15 K, x2 = 0.25): 15.23 ± 0.77 mPa·s; viscosity (343.15 K, x2 = 0.5): 14.13 ± 0.71 mPa·s; viscosity (343.15 K, x2 = 0.746): 15.46 ± 0.78 mPa·s; mass density (343.15 K, x2 = 0): 1261.3 ± 0.6 kg/m3; mass density (343.15 K, x2 = 0.25): 1302.2 ± 0.7 kg/m3; mass density (343.15 K, x2 = 0.5): 1336.3 ± 0.7 kg/m3; mass density (343.15 K, x2 = 0.746): 1367.1 ± 0.7 kg/m3; viscosity (348.15 K, x2 = 0): 16.47 ± 0.83 mPa·s; viscosity (348.15 K, x2 = 0.25): 13.43 ± 0.68 mPa·s; viscosity (348.15 K, x2 = 0.5): 12.54 ± 0.63 mPa·s; viscosity (348.15 K, x2 = 0.746): 13.66 ± 0.69 mPa·s; mass density (348.15 K, x2 = 0): 1257.5 ± 0.6 kg/m3; mass density (348.15 K, x2 = 0.25): 1298.1 ± 0.7 kg/m3; mass density (348.15 K, x2 = 0.5): 1332 ± 0.7 kg/m3; mass density (348.15 K, x2 = 0.746): 1362.6 ± 0.7 kg/m3; viscosity (353.15 K, x2 = 0): 14.83 ± 0.75 mPa·s; viscosity (353.15 K, x2 = 0.25): 11.94 ± 0.6 mPa·s; viscosity (353.15 K, x2 = 0.5): 11.18 ± 0.56 mPa·s; viscosity (353.15 K, x2 = 0.746): 12.23 ± 0.62 mPa·s; mass density (353.15 K, x2 = 0): 1253.7 ± 0.6 kg/m3; mass density (353.15 K, x2 = 0.25): 1294 ± 0.7 kg/m3; mass density (353.15 K, x2 = 0.5): 1327.8 ± 0.7 kg/m3; mass density (353.15 K, x2 = 0.746): 1358.2 ± 0.7 kg/m3; viscosity (358.15 K, x2 = 0): 12.86 ± 0.65 mPa·s; viscosity (358.15 K, x2 = 0.25): 10.63 ± 0.54 mPa·s; viscosity (358.15 K, x2 = 0.5): 9.981 ± 0.5 mPa·s; viscosity (358.15 K, x2 = 0.746): 10.93 ± 0.55 mPa·s; mass density (358.15 K, x2 = 0): 1249.9 ± 0.6 kg/m3; mass density (358.15 K, x2 = 0.25): 1290 ± 0.7 kg/m3; mass density (358.15 K, x2 = 0.5): 1323.5 ± 0.7 kg/m3; mass density (358.15 K, x2 = 0.746): 1353.8 ± 0.7 kg/m3; viscosity (363.15 K, x2 = 0): 11.48 ± 0.58 mPa·s; viscosity (363.15 K, x2 = 0.25): 9.541 ± 0.48 mPa·s; viscosity (363.15 K, x2 = 0.5): 8.973 ± 0.45 mPa·s; viscosity (363.15 K, x2 = 0.746): 9.909 ± 0.5 mPa·s; mass density (363.15 K, x2 = 0): 1246.2 ± 0.6 kg/m3; mass density (363.15 K, x2 = 0.25): 1286.1 ± 0.7 kg/m3; mass density (363.15 K, x2 = 0.5): 1319.3 ± 0.7 kg/m3; mass density (363.15 K, x2 = 0.746): 1349.5 ± 0.7 kg/m3
